Assay results published in PubChem BioAssay (NCI).
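In this assay, cells in 96-well plates receive the compound at five concentrations for 48 hours. Endpoints are linearly interpolated between the surrounding concentrations. GI50 is the concentration that inhibits growth by half. The concentration for full growth arrest is given as TGI.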

Assays:
Test in all cases: NCI-60 cell line screen, 48 h
IGROV1 ovarian = system: IGROV1 ovarian
LOX IMVI melanoma = system: LOX IMVI melanoma
SNB-19 CNS = system: SNB-19 CNS
HCT-116 colon = system: HCT-116 colon
SK-MEL-28 melanoma = system: SK-MEL-28 melanoma
MOLT-4 leukemia = system: MOLT-4 leukemia
UO-31 renal = system: UO-31 renal
OVCAR-5 ovarian = system: OVCAR-5 ovarian
SNB-75 CNS = system: SNB-75 CNS
BT-549 breast = system: BT-549 breast
OVCAR-4 ovarian = system: OVCAR-4 ovarian
CAKI-1 renal = system: CAKI-1 renal
CCRF-CEM leukemia = system: CCRF-CEM leukemia
T-47D breast = system: T-47D breast
SN12C renal = system: SN12C renal
NCI-H23 lung = system: NCI-H23 lung
TK-10 renal = system: TK-10 renal
HCT-15 colon = system: HCT-15 colon
HOP-62 NSCLC = system: HOP-62 NSCLC
HOP-92 NSCLC = system: HOP-92 NSCLC
A498 renal = system: A498 renal
U251 CNS = system: U251 CNS
SR leukemia = system: SR leukemia
HCC-2998 colon = system: HCC-2998 colon
ACHN renal = system: ACHN renal
NCI-H522 lung = system: NCI-H522 lung
NCI/ADR-RES ovarian = system: NCI/ADR-RES ovarian
SF-295 CNS = system: SF-295 CNS
SK-OV-3 ovarian = system: SK-OV-3 ovarian
KM12 colon = system: KM12 colon
SW-620 colon = system: SW-620 colon
MDA-MB-231 breast = system: MDA-MB-231 breast
DU-145 prostate = system: DU-145 prostate
HL-60(TB) leukemia = system: HL-60(TB) leukemia
SF-268 CNS = system: SF-268 CNS
K-562 leukemia = system: K-562 leukemia
MDA-N = system: MDA-N
OVCAR-8 ovarian = system: OVCAR-8 ovarian
M14 melanoma = system: M14 melanoma
OVCAR-3 ovarian = system: OVCAR-3 ovarian
MALME-3M melanoma = system: MALME-3M melanoma
SK-MEL-2 melanoma = system: SK-MEL-2 melanoma
RPMI-8226 leukemia = system: RPMI-8226 leukemia
RXF 393 renal = system: RXF 393 renal
UACC-257 melanoma = system: UACC-257 melanoma
MDA-MB-435 = system: MDA-MB-435
PC-3 prostate = system: PC-3 prostate
HT29 colon = system: HT29 colon
NCI-H226 lung = system: NCI-H226 lung
EKVX NSCLC = system: EKVX NSCLC
SK-MEL-5 melanoma = system: SK-MEL-5 melanoma
UACC-62 melanoma = system: UACC-62 melanoma
COLO 205 colon = system: COLO 205 colon
A549 NSCLC = system: A549 NSCLC
MCF7 breast = system: MCF7 breast
NCI-H460 lung = system: NCI-H460 lung
HS 578T breast = system: HS 578T breast
786-0 renal = system: 786-0 renal
SF-539 CNS = system: SF-539 CNS

O=C1Nc2ccc(Cl)cc2/C1=C\c1c(Cl)nc2sccn12
TGI (IGROV1 ovarian): > 100000 nM
TGI (LOX IMVI melanoma): > 100000 nM
TGI (SNB-19 CNS): > 100000 nM
TGI (HCT-116 colon): 34000 nM
TGI (SK-MEL-28 melanoma): > 100000 nM
TGI (MOLT-4 leukemia): 51900 nM
TGI (UO-31 renal): > 100000 nM
TGI (OVCAR-5 ovarian): 78200 nM
TGI (SNB-75 CNS): > 100000 nM
TGI (BT-549 breast): > 100000 nM
TGI (OVCAR-4 ovarian): > 100000 nM
TGI (CAKI-1 renal): > 100000 nM
TGI (CCRF-CEM leukemia): 62300 nM
TGI (T-47D breast): > 100000 nM
TGI (SN12C renal): > 100000 nM
TGI (NCI-H23 lung): > 100000 nM
TGI (TK-10 renal): > 100000 nM
TGI (HCT-15 colon): > 100000 nM
TGI (HOP-62 NSCLC): 96300 nM
TGI (HOP-92 NSCLC): > 100000 nM
TGI (A498 renal): 8660 nM
TGI (U251 CNS): > 100000 nM
TGI (SR leukemia): > 100000 nM
TGI (HCC-2998 colon): > 100000 nM
TGI (ACHN renal): > 100000 nM
TGI (NCI-H522 lung): > 100000 nM
TGI (NCI/ADR-RES ovarian): 17600 nM
TGI (SF-295 CNS): 25300 nM
TGI (SK-OV-3 ovarian): > 100000 nM
TGI (KM12 colon): 23400 nM
TGI (SW-620 colon): > 100000 nM
TGI (MDA-MB-231 breast): > 100000 nM
TGI (DU-145 prostate): > 100000 nM
TGI (HL-60(TB) leukemia): 33700 nM
TGI (SF-268 CNS): > 100000 nM
TGI (K-562 leukemia): > 100000 nM
TGI (MDA-N): 8420 nM
TGI (OVCAR-8 ovarian): > 100000 nM
TGI (M14 melanoma): > 100000 nM
TGI (OVCAR-3 ovarian): 12400 nM
TGI (MALME-3M melanoma): > 100000 nM
TGI (SK-MEL-2 melanoma): > 100000 nM
TGI (RPMI-8226 leukemia): > 100000 nM
TGI (RXF 393 renal): > 100000 nM
TGI (UACC-257 melanoma): > 100000 nM
TGI (MDA-MB-435): 3220 nM
TGI (PC-3 prostate): > 100000 nM

COc1ccc2nc3cc([N+](=O)[O-])ccc3c(NCCCN(C)C)c2c1
GI50 (IGROV1 ovarian): 363 nM
TGI (IGROV1 ovarian): 3590 nM
GI50 (LOX IMVI melanoma): 249 nM
TGI (LOX IMVI melanoma): 1080 nM
GI50 (SNB-19 CNS): 299 nM
TGI (SNB-19 CNS): 2610 nM
GI50 (HCT-116 colon): 36 nM
TGI (HCT-116 colon): 1250 nM
GI50 (SK-MEL-28 melanoma): 504 nM
TGI (SK-MEL-28 melanoma): 2870 nM
GI50 (MOLT-4 leukemia): 43.2 nM
TGI (MOLT-4 leukemia): 680 nM
GI50 (UO-31 renal): 1630 nM
TGI (UO-31 renal): 6100 nM
GI50 (OVCAR-5 ovarian): 768 nM
TGI (OVCAR-5 ovarian): 4510 nM
GI50 (SNB-75 CNS): 310 nM
TGI (SNB-75 CNS): 1530 nM
GI50 (BT-549 breast): 2650 nM
TGI (BT-549 breast): 5260 nM
GI50 (HT29 colon): 39.7 nM
TGI (HT29 colon): 1120 nM
GI50 (NCI-H226 lung): 251 nM
TGI (NCI-H226 lung): 2420 nM
GI50 (EKVX NSCLC): 2250 nM
TGI (EKVX NSCLC): 7910 nM
GI50 (SK-MEL-5 melanoma): 187 nM
TGI (SK-MEL-5 melanoma): 832 nM
GI50 (UACC-62 melanoma): 384 nM
TGI (UACC-62 melanoma): 1640 nM
GI50 (OVCAR-4 ovarian): 95.9 nM
TGI (OVCAR-4 ovarian): 539 nM
GI50 (CAKI-1 renal): 1240 nM
TGI (CAKI-1 renal): 3830 nM
GI50 (CCRF-CEM leukemia): 557 nM
TGI (CCRF-CEM leukemia): 4310 nM
GI50 (COLO 205 colon): 221 nM
TGI (COLO 205 colon): 2170 nM
GI50 (A549 NSCLC): 278 nM
TGI (A549 NSCLC): 10100 nM
GI50 (SN12C renal): 111 nM
TGI (SN12C renal): 768 nM
GI50 (NCI-H23 lung): 170 nM
TGI (NCI-H23 lung): 737 nM
GI50 (HCT-15 colon): 3460 nM
GI50 (HOP-62 NSCLC): 31.5 nM
TGI (HOP-62 NSCLC): 202 nM
GI50 (HOP-92 NSCLC): 149 nM
TGI (HOP-92 NSCLC): 651 nM
GI50 (A498 renal): 1870 nM
TGI (A498 renal): 5720 nM
GI50 (U251 CNS): 44.1 nM
TGI (U251 CNS): 375 nM
GI50 (MCF7 breast): 30.4 nM
TGI (MCF7 breast): 204 nM
GI50 (SR leukemia): 79.4 nM
GI50 (ACHN renal): 418 nM
TGI (ACHN renal): 3090 nM
GI50 (NCI-H522 lung): 19.9 nM
TGI (NCI-H522 lung): 59.7 nM
GI50 (NCI-H460 lung): 40.9 nM
TGI (NCI-H460 lung): 1500 nM
GI50 (NCI/ADR-RES ovarian): 2460 nM
TGI (NCI/ADR-RES ovarian): 14200 nM
GI50 (SF-295 CNS): 350 nM
TGI (SF-295 CNS): 2390 nM
GI50 (SK-OV-3 ovarian): 231 nM
TGI (SK-OV-3 ovarian): 3130 nM
GI50 (HS 578T breast): 372 nM
TGI (HS 578T breast): 4760 nM
GI50 (SW-620 colon): 67 nM
TGI (SW-620 colon): 1390 nM
GI50 (MDA-MB-231 breast): 394 nM
TGI (MDA-MB-231 breast): 3450 nM
GI50 (DU-145 prostate): 175 nM
TGI (DU-145 prostate): 11900 nM
GI50 (HL-60(TB) leukemia): 95.3 nM
GI50 (SF-268 CNS): 295 nM
TGI (SF-268 CNS): 1740 nM
GI50 (K-562 leukemia): 36.1 nM
TGI (K-562 leukemia): 183 nM
GI50 (MDA-N): 491 nM
TGI (MDA-N): 2000 nM
GI50 (OVCAR-8 ovarian): 89.5 nM
TGI (OVCAR-8 ovarian): 1590 nM
GI50 (786-0 renal): 174 nM
TGI (786-0 renal): 1280 nM
GI50 (M14 melanoma): 176 nM
TGI (M14 melanoma): 412 nM
GI50 (SF-539 CNS): 520 nM
TGI (SF-539 CNS): 3190 nM
GI50 (OVCAR-3 ovarian): 594 nM
TGI (OVCAR-3 ovarian): 7860 nM
GI50 (MALME-3M melanoma): 287 nM
TGI (MALME-3M melanoma): 878 nM
GI50 (RPMI-8226 leukemia): 38 nM
TGI (RPMI-8226 leukemia): 437 nM
GI50 (UACC-257 melanoma): 1710 nM
TGI (UACC-257 melanoma): 4410 nM
GI50 (MDA-MB-435): 247 nM
TGI (MDA-MB-435): 1000 nM
TGI (PC-3 prostate): 1550 nM

Nc1nc2c(c(=O)[nH]1)C(c1ccc(Cl)cc1)C=C(c1ccccc1)N2 (configuration not stated)
TGI (LOX IMVI melanoma): > 100000 nM
TGI (SNB-19 CNS): > 100000 nM
TGI (HCT-116 colon): 41800 nM
TGI (SK-MEL-28 melanoma): 60600 nM
TGI (UO-31 renal): > 100000 nM
TGI (BT-549 breast): > 100000 nM
TGI (SK-MEL-5 melanoma): 55800 nM
TGI (UACC-62 melanoma): 78300 nM
TGI (OVCAR-4 ovarian): > 100000 nM
TGI (CAKI-1 renal): > 100000 nM
TGI (CCRF-CEM leukemia): 93400 nM
TGI (COLO 205 colon): 45600 nM
TGI (T-47D breast): 72700 nM
TGI (A549 NSCLC): > 100000 nM
TGI (SN12C renal): 46600 nM
TGI (NCI-H23 lung): 59100 nM
TGI (TK-10 renal): > 100000 nM
TGI (HCT-15 colon): > 100000 nM
TGI (HOP-92 NSCLC): 54700 nM
TGI (A498 renal): > 100000 nM
TGI (U251 CNS): 39400 nM
TGI (SR leukemia): 51800 nM
TGI (HCC-2998 colon): 34200 nM
TGI (ACHN renal): > 100000 nM
TGI (NCI-H460 lung): 71700 nM
TGI (SF-295 CNS): > 100000 nM
TGI (SK-OV-3 ovarian): 54900 nM
TGI (SW-620 colon): 61900 nM
TGI (MDA-MB-231 breast): 43600 nM
TGI (DU-145 prostate): > 100000 nM
TGI (HL-60(TB) leukemia): > 100000 nM
TGI (K-562 leukemia): 60000 nM
TGI (MDA-N): 47700 nM
TGI (786-0 renal): 74500 nM
TGI (RPMI-8226 leukemia): 39300 nM
TGI (RXF 393 renal): > 100000 nM
TGI (UACC-257 melanoma): > 100000 nM
TGI (MDA-MB-435): 41800 nM
